# In article PMC5599584, “Kinetic adaptation of human Myo19 for active mitochondrial transport to growing filopodia tips” (Scientific Reports, 2017):
# Experiments:
# [1] = target: T1, Myo19-3IQ (Homo sapiens, UniProt Q96H55); type: biochemical; settings: no actin; 250 µM ATP (initial)
# T1 construct: with Calmodulin
# [2] = target: T2, Acto·Myo19-3IQ (Homo sapiens, UniProt Q96H55); assay: biochemical
# [3] = target: T1, Myo19-3IQ; assay: stopped-flow mant FRET / single turnover; type: binding; settings: read-out: K 1T
# [4] = target: T2, Acto·Myo19-3IQ; assay: stopped-flow mant FRET, association kinetics; type: binding; design: with Calmodulin; Actin, alpha skeletal muscle (rabbit or chicken skeletal muscle F-actin); settings: KMg50 buffer pH 7.3, 25 °C; bound to F-actin; labelled compound
# [5] = target: F-actin (actin filaments from rabbit or chicken skeletal muscle) (rabbit or chicken) (UniProt P68135)
# T2 sequence (Q96H55 whole entry, looked up): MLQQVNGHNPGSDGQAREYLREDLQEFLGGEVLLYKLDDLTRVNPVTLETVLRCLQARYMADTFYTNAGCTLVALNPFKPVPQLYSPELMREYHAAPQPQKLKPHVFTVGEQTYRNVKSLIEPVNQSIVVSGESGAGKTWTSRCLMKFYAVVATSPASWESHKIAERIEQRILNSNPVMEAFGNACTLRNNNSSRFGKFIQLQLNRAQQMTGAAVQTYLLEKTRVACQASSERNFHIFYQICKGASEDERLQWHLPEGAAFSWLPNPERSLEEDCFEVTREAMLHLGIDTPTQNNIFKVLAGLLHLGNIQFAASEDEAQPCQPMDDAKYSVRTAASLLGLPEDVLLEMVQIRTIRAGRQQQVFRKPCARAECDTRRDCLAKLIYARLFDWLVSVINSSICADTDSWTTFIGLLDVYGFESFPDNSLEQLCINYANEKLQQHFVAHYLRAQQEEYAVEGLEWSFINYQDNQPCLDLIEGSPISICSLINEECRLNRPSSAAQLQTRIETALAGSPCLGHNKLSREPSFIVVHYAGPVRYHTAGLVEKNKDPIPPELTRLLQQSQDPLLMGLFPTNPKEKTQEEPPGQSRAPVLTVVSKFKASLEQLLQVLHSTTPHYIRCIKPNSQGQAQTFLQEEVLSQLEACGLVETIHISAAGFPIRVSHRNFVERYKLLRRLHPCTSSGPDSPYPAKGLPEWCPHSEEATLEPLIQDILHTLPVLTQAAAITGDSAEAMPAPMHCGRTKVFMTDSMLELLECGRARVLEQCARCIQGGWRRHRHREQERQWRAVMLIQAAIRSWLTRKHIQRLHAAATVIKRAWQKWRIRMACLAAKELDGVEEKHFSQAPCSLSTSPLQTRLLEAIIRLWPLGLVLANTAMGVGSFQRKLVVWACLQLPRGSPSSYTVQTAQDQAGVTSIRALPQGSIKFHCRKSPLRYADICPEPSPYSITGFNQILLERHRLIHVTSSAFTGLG
# T1 sequence (Q96H55 whole entry, looked up): as above
compound,measurement,setting,value
Nc1ncnc2c1ncn2[C@@H]1O[C@H](COP(=O)(O)OP(=O)(O)OP(=O)(O)O)[C@@H](O)[C@H]1O [ATP],quenched-flow Pi burst; NADH-coupled ATPase,[1],Myo19-3IQ (in the absence of actin) mixed with ATP yielded a Pi burst amplitude
same,Kd,[2],476 ± 116 µM
CNc1ccccc1C(=O)O[C@H]1C[C@H](n2cnc3c(N)ncnc32)O[C@@H]1COP(=O)(O)OP(=O)(O)OP(=O)(O)O [mT],Kd,[3],~0.04 µM
same,"stopped-flow mant FRET, association kinetics",[4],mT bound similarly to Myo19-3IQ or Acto·Myo19-3IQ
"Myo19-3IQ (human Myo19 motor domain with three IQ light chain-binding motifs, with its associated calmodulin light chain) (from UniProt P0DP23 1-149) (complex)","K ATPase: actin concentration at the half maximal steady-state ATPase activity (NADH-coupled assay, 1-100 µM F-actin)",[5],11.6 µM
